Patent publication US8895555B2, “Methods of treating intestinal diseases and inflammatory conditions related to HIV-AIDS” (Bach Pharma, Inc., priority 2009, dated 2014)
Like-named read-outs stand apart in the source and are kept apart here.

Assays:
[1] = system: H9 cells (HIV-infected or uninfected)
ts1 virus = conditions: for disease course: T cell loss, thymic atrophy, wasting, death: ts1-infected mice treated with GVT
Source text: GVT® (monosodium luminol) was provided by Bach-Pharma, Inc., North Andover, Mass. Goat anti-MoMuLV gp70 was from Microbiology Associates, Burlingame, Calif. This antibody recognizes epitopes shared by the mature gp70 viral envelope protein and the precursor preprotein gPr80^env Monoclonal rabbit anti-cleaved caspase-3 was from Cell Signaling (Boston, Mass.). Mouse monoclonal anti-Nrf2 was from R&D systems (Minneapolis, Minn.). Polyclonal anticytokeratin-5 (CK5) and monoclonal anti-cytokeratin-8 (CK8) antibodies were from Covance Research (Richmond, Calif.) and the National Institutes of Health Developmental Studies Hybridoma Bank (Iowa City, Iowa), respectively. F1TC and Texas Red conjugated anti-mouse, rat, rabbit and goat antibodies were from Jackson ImmunoResearch (West Grove, Pa.).
5 (and 6)-chloromethyl-2′,7′-dichlorodihydrofluorescein diacetate (CM-H2DCFDA; Molecular Probes, Eugene, Oreg.; hereafter called DCFDA), is a cell-permeant indicator for intracellular ROS, including hydrogen peroxide and superoxide. The dye itself is non-fluorescent, but when its acetate groups are removed by intracellular esterases, it is oxidized to form a highly fluorescent derivative, carboxydichlorofluorescein. Freshly isolated thymocytes were prepared from uninfected, GVT-only, ts1-only and ts1-GVT-treated mice, at 30 dpi. The thymocytes were incubated with […] of DCFDA, in culture medium (RPMI 1640) at 37° C. for 30 mm. After this loading period, the cells were washed twice with PBS, lysed, and the fluorescence of their contents measured using a Synergy HT multi-detection microplate reader (BioTek Instruments, Inc., Winoski, Vt.). The data are expressed as means±standard deviation (SD) of relative fluorescence units (against a standard curve) for DCFDA-loaded thymocyte lysates for three mice of each treatment group (See FIG. 16).
FVB/N mice were obtained from Taconic Farms (Germantown, N.Y.). Breeding FVB/N pairs were housed in sterilized microisolator cages and supplied with autoclaved feed and water ad libitum. The microisolators were kept in an environmentally controlled isolation room. For ts1 infection, 4-day-old mice were inoculated intraperitoneally with 0.1 ml of vehicle (mock infection) or with 0.1 ml of a ts1 suspension containing 2×107 infectious units/ml. […] For GVT treatment, animals from the control and ts1 infected groups were divided into two groups each on the day of infection. Infected mice were then divided again into two groups, one of whose individuals received 0.9% normal saline, intraperitoneally, for five continuous days-a-week, followed by two resting days, until the end of the experiment, while the other half of the infected animals received freshly prepared GVT, delivered intraperitoneally at 200 mg/kg body weight/day in 0.9% normal saline. The uninfected mice were also divided into two groups, one receiving saline alone, and the other receiving GVT as described above. […] All mice were observed daily for clinical signs of disease, and the mice from all groups were sacrificed at 30 dpi.
Whole thymi that were to be used for Western blotting were removed, snap frozen in liquid nitrogen and stored at −80° C. until use. For immunohistochemistry, thymi were snap-frozen in liquid nitrogen in Optimal Cutting Temperature (OCT) embedding compound (Sakura Finetek USA, Torrance, Calif.). These experimental protocols were approved by The University of Texas M.D. Anderson Cancer Center's Institutional Animal Care and Use Committee. […]

[2] = system: acute intestine infections of different nature
Procedure: Clinical tests were performed on 56 patients suffering from acute intestine infections of different nature, accompanied by intoxication syndrome and diarrhea. All 56 patients had similar clinical manifestations, form and seriousness of the disease. The drug was prescribed to be used according to the following protocol: initial dose, 200 mg intramuscularly; then 3 hours later, a dose of 100 mg; and 3 hours later, a dose of 100 mg (400 mg per day).
In anamnesis of all patients no data of non-endurance or allergic reactions to any remedies was stated. GVT was administered to 54 patients within first hours after admission, before the application of traditional treatment methods, i.e., water-crystalloid solutions, vitamins, spasmolytics, as by acute dysentery and salmonellosis—antibacterial therapy.

[3] = system: MT-4 cells (HIV-infected or uninfected)
Procedure: HIV-1 infection of cultured T lymphoblastoid cells (MT4) causes a dramatic increase in intracellular ROS, and this is associated with cell death.
GVT was added to the cell culture every day for all six days of culture. HIV causes apoptosis of MT-4 cells, measurable when the cells are harvested at 6 dpi.

[4] = system: ts1 virus, a mutant of MoMuLV; conditions: mouse, in vivo
Source text: GVT® (sodium a-luminol) was provided by Bach-Pharma, Inc., North Andover, Mass. Goat anti-MoMuLV gp70 was from Microbiology Associates, Burlingame, Calif. (this antibody recognizes epitopes shared by the mature gp70 viral envelope protein and the precursor preprotein gPr80^env). Anti-mouse Ki67 was from Vector Laboratories, Burlingame, Calif. Polyclonal and monoclonal anti-mouse TSHI3 were from Cell Signaling (Boston, Mass.) and Dr. John R. Klein's laboratory, respectively. Mand rabbit anti-activated caspase-3 was from Cell Signaling. Mouse monoclonal anti Nrf2 was from R&D systems (Minneapolis, Minn.). FITC and Texas Red-conjugated anti-mouse, rat, rabbit and goat antibodies were from Jackson ImmunoResearch (West Grove, Pa.).
FVB/N mice were obtained from Taconic Farms (Germantown, N.Y.). Breeding FVB/N pairs were housed in sterilized microisolator cages and supplied with autoclaved feed and water ad libitum. The microisolators were kept in an environmentally controlled isolation room. For ts1 infection, four-day-old mice were inoculated intraperitoneally with 0.1 ml of vehicle (mock infection) or with 0.1 ml of a ts1 suspension containing 2×107 infectious units/ml.
For GVT treatment, animals from the control and ts1-infected groups are divided into two groups each […]. The infected mice are then divided again into two groups, one of whose individuals received 0.9% normal saline, intraperitoneally, five continuous days a week, followed by two resting days, until the end of the experiment. At the same time, mice from the other half of the infected animals received freshly prepared GVT, delivered intraperitoneally at 200 mg/kg body weight/day in 0.9% normal saline. The uninfected mice were also divided into two groups, one receiving saline alone, and the other receiving GVT as described above.
At 30 dpi, mice from all groups were sacrificed, and their small intestines (2 cm from the jejunum) processed for Western blotting of the tissues or for frozen section immunohistochemistry. All mice were observed daily for clinical signs of disease, and individuals from all groups were sacrificed at 30 dpi. Intestinal tissues to be used for Western blotting are removed, snap-frozen in liquid nitrogen and stored at −80° C. until use. For immunohistochemistry, intestine segments were snap-frozen in liquid nitrogen in OCT embedding compound. These animal protocols were approved by The University of Texas M.D. Anderson Cancer Center Institutional Animal Care and Use Committee.
Western blotting analysis was performed as described previously. Briefly, whole cell protein was extracted from whole intestines in radioimmunoprecipitation assay buffer (NP40, 0.5% sodium deoxycholate, 0.1% sodium dodecyl sulfate, 0.25 mM phenylmethylsulfonylfluoride, 1 mg/ml aprotinin, leupeptin, and pepstatin A, 1 mM sodium orthovanadate, and 1 mM sodium fluoride in phosphate-buffered saline, or PBS). Protein concentrations were measured using the Bio-Rad Dc protein assay reagent (Bio Rad Laboratories, Hercules, Calif.) as per the manufacturer's instructions. These lysates ([…] total protein per sample) were electrophoresed on 10% SDS-PAGE gels, and then transferred to polyvinylidene difluoride membranes (Millipore Corp, Bedford, Mass.). The membranes were blocked at room temperature for 1 hr in iris-buffered saline, or TBS, with 5% nonfat milk, and incubated with unconjugated primary antibody for 2 hrs, followed by 3 washes with TBS. The blots were then incubated with species-appropriate horseradish peroxidase-conjugated secondary antibody for an additional 1 hr. After three washes, immune complexes were detected by chemiluminescence (NEN Life Science Products, Boston, Mass.). A monoclonal anti-13-actin antibody (Sigma, St. Louis, Mo.) was used as a loading control. Values calculated as the ratio of their normalized values against this number.

[5] = GVT intramuscularly, 400 mg per day

Q: How did the “ROS in uninfected H9 cells” value [1] turn out when `Nc1cccc2c(=O)[n-][nH]c(=O)c12.[Na+]` [GVT, monosodium luminol] was run?
A: does not dramatically reduce ROS

Q: And the “Nrf2-positive cells in thymic sections (gp70/Nrf2 double staining)” value (ts1 virus; ts1-GVT mice, 30 dpi)?
A: large numbers of red cellular profiles (Nrf2-positive only)

Q: And the “thymic corticomedullary organization (H&E)” value (ts1 virus; ts1-GVT mice, 30 dpi)?
A: normal corticomedullary organization

Q: And the thymus weight (ts1 virus; ts1-GVT mice, 30 dpi)?
A: no thymic weight loss

Q: What about the “disease course: T cell loss, thymic atrophy, wasting, death” value (ts1 virus) of the same compound?
A: delayed T cell loss and thymic atrophy for many weeks

Q: What about the “disease course: T cell loss, thymic atrophy, wasting, death” value (ts1 virus; listed as monosodium luminol) of the same compound?
A: significantly delays thymic atrophy, wasting, and death

Q: And the “patients with body temperature normalized on the 1st or 2nd day of treatment” value ([2]; 53 patients of 56)?
A: 94.6%

Q: What about the general weakness [2, 5] of the same compound?
A: disappeared on the 3rd day

Q: What about the “time to positive effect” value [2, 5] of the same compound?
A: ≤ 24 h

Q: What about the intoxication ([2]; GVT intramuscularly, 400 mg per day, majority of patients) of the same compound?
A: decrease in intoxication on the 1st and 2nd days

Q: What about the “viability of uninfected MT-4 cells” value ([3]; GVT added every day for 6 days of culture) of the same compound?
A: increases the viability of uninfected cells

Q: What about the “apoptosis of HIV-infected MT-4 cells” value ([3]; GVT added every day for 6 days, harvested at 6 dpi) of the same compound?
A: significantly reduces apoptosis

Q: And the “survival of HIV-infected MT4 cells” value ([3]; HIV-1 infected, GVT-treated)?
A: the infected cells survive

Q: What about the “Nrf2 levels in MT-4 cells” value ([3]; days 1-6 dpi, infected or not) of the same compound?
A: an increase

Q: And the “viability of uninfected MT-4 cells” value ([3]; single dose on day 1)?
A: no effect on their viability

Q: What about the “effect on uninfected MT-4 cells (proliferation)” value ([3]; uninfected, FIG. 9) of the same compound?
A: mitogenic

Q: What about the “CD4-positive cells in the LP of intestinal villi” value [4] of the same compound?
A: present in the LP of villi

Q: And the “Ki67 staining pattern (cell cycling) of intestinal epithelium” value [4]?
A: limited to the crypts

Q: And the “Nrf2 in intestinal epithelial cells (immunostaining)” value [4]?
A: heavy loading with Nrf2

Q: What about the “Nrf2 levels in intestinal tissues (Western blot)” value [4] of the same compound?
A: significantly upregulated

Q: And the “TSH expression pattern along crypt-villus axis (immunostaining)” value [4]?
A: limited to the crypts

Q: What about the “TSH level in intestinal lysates (Western blot)” value [4] of the same compound?
A: what appear to be normal TSH levels

Q: And the “cleaved caspase-3 in intestines (Western blot)” value [4]?
A: absent

Q: And the “gPr80env accumulation in intestinal lysate (anti-gp70 Western blot)” value [4]?
A: only gp70 was present

Q: And the “crypt-villus organization of small intestine (H&E and gp70 staining)” value ([4]; ip, 200 mg/kg/day)?
A: apparently normal crypt-villus organization
